Assays:
[1] = test system: main crop (wheat, corn, rice, soybean, cotton, oilseed, millet and sorghum); assay: Post-emergence test experiment, main crops (Table 2); assay type: in vivo; design: key: Level 10: completely dead; Level 9: above 90% growth inhibition rate; Level 8: above 80% growth inhibition rate; Level 7: above 70% growth inhibition rate; Level 6: above 60% growth inhibition rate; Level 5: above 50% growth inhibition rate; Level 4: above 30% growth inhibition rate; Level 3: above 20% growth inhibition rate; Level 2: above 10% growth inhibition rate; Level 1: above 1-10% growth inhibition rate; Level 0: no effect; conditions: 3 weeks after spraying, greenhouse
Experimental: (§1) Post-emergence test experiment: Monocotyledonous and dicotyledonous weed seeds and main crop seeds (i.e. wheat, corn, rice, soybean, cotton, oilseed, millet and sorghum.) were put into a plastic pot loaded with soil. Then covered with 0.5-2 cm soil, the seeds were allowed to grow in good greenhouse environment. The test plants were treated at 2-3 leaf stage 2-3 weeks after sowing. The test compounds of the invention were dissolved with acetone respectively, then added with 80 tween and diluted by certain amount of water to certain concentration. The solution was sprayed to the plants with a sprayer. Then the plants were cultured for 3 weeks in the greenhouse.

[2] = test system: Monocotyledonous and dicotyledonous weed; assay: Post-emergence test experiment, weed control effect (Table 2); assay type: in vivo; design: key to weed control effect, Setaria viridis (level) / weed control effect, Rorippa indica (level) / weed control effect, Abutilon theophrasti (level) / weed control effect, Echinochloa crus-galli (level) / weed control effect, Digitaria sanguinalis (level): Level 10: completely dead; Level 9: above 90% growth inhibition rate; Level 8: above 80% growth inhibition rate; Level 7: above 70% growth inhibition rate; Level 6: above 60% growth inhibition rate; Level 5: above 50% growth inhibition rate; Level 4: above 30% growth inhibition rate; Level 3: above 20% growth inhibition rate; Level 2: above 10% growth inhibition rate; Level 1: above 1-10% growth inhibition rate; Level 0: no effect; conditions: 3 weeks after spraying, greenhouse
Experimental: as §1

SMILES	effect on crop, corn (level) ([1]; 120 g/ha)	effect on crop, rice (level) ([1]; 120 g/ha)	effect on crop, wheat (level) ([1]; 120 g/ha)	weed control effect, Abutilon theophrasti (level) ([2]; 120 g/ha)	weed control effect, Bidens pilosa (level) ([2]; 120 g/ha)	weed control effect, Digitaria sanguinalis (level) ([2]; 120 g/ha)	weed control effect, Echinochloa crus-galli (level) ([2]; 120 g/ha)	weed control effect, Rorippa indica (level) ([2]; 120 g/ha)	weed control effect, Setaria viridis (level) ([2]; 120 g/ha)	effect on crop, corn (level) ([1]; 30 g/ha)	effect on crop, rice (level) ([1]; 30 g/ha)	effect on crop, wheat (level) ([1]; 30 g/ha)	weed control effect, Abutilon theophrasti (level) ([2]; 30 g/ha)	weed control effect, Bidens pilosa (level) ([2]; 30 g/ha)	weed control effect, Digitaria sanguinalis (level) ([2]; 30 g/ha)	weed control effect, Echinochloa crus-galli (level) ([2]; 30 g/ha)	weed control effect, Rorippa indica (level) ([2]; 30 g/ha)	weed control effect, Setaria viridis (level) ([2]; 30 g/ha)	also measured
Cc1nn(C)cc1C(=O)Oc1c(C(=O)c2ccc(S(C)(=O)=O)c(Cn3cc(Cl)cn3)c2Cl)c(C)nn1C [Compound 05]	0	1 (Level 1: above 1-10% growth inhibition rate)	0	9 (Level 9: above 90% growth inhibition rate)	8 (Level 8: above 80% growth inhibition rate)	9 (Level 9: above 90% growth inhibition rate)	10	10	5 (Level 5: above 50% growth inhibition rate)										
CCOCc1c(S(C)(=O)=O)ccc(C(=O)c2c(C)nn(C)c2OC(=O)c2cn(C)nc2C)c1Cl [Compound 27]										0	6 (Level 6: above 60% growth inhibition rate)	0	7 (Level 7: above 70% growth inhibition rate)	7 (Level 7: above 70% growth inhibition rate)	7 (Level 7: above 70% growth inhibition rate)	9 (Level 9: above 90% growth inhibition rate)	5 (Level 5: above 50% growth inhibition rate)	6 (Level 6: above 60% growth inhibition rate)	
CCOc1c(C(=O)Oc2c(C(=O)c3ccc(S(C)(=O)=O)c(Cn4nc(C)cc4C)c3Cl)cnn2CC)cnn1C [Compound 93]	0	0	0	6 (Level 6: above 60% growth inhibition rate)	6 (Level 6: above 60% growth inhibition rate)	1 (Level 1: above 1-10% growth inhibition rate)	10	4 (Level 4: above 30% growth inhibition rate)	3 (Level 3: above 20% growth inhibition rate)										
Cc1cnn(Cc2c(S(C)(=O)=O)ccc(C(=O)c3c(C4CC4)nn(C)c3OC(=O)c3cnn(C)c3)c2Cl)c1 [Compound 22]	0	0	0	6 (Level 6: above 60% growth inhibition rate)	6 (Level 6: above 60% growth inhibition rate)	1 (Level 1: above 1-10% growth inhibition rate)	10	4 (Level 4: above 30% growth inhibition rate)	3 (Level 3: above 20% growth inhibition rate)										
CC=CCOCc1c(S(C)(=O)=O)ccc(C(=O)c2cnn(C)c2OC(=O)c2cn(C)nc2C)c1Cl [Compound 43]										0	3 (Level 3: above 20% growth inhibition rate)	0	7 (Level 7: above 70% growth inhibition rate)	7 (Level 7: above 70% growth inhibition rate)	7 (Level 7: above 70% growth inhibition rate)	10	10	9 (Level 9: above 90% growth inhibition rate)	
COCCCOCc1c(S(C)(=O)=O)ccc(C(=O)c2c(C)nn(C)c2OC(=O)c2cn(C)nc2C)c1Cl [Compound 37]																			effect on crop, corn (level) ([1]; 60 g/ha): 0; effect on crop, rice (level) ([1]; 60 g/ha): 1 (Level 1: above 1-10% growth inhibition rate); effect on crop, wheat (level) ([1]; 60 g/ha): 0; weed control effect, Abutilon theophrasti (level) ([2]; 60 g/ha): 10; weed control effect, Bidens pilosa (level) ([2]; 60 g/ha): 8 (Level 8: above 80% growth inhibition rate); weed control effect, Digitaria sanguinalis (level) ([2]; 60 g/ha): 10; weed control effect, Echinochloa crus-galli (level) ([2]; 60 g/ha): 9 (Level 9: above 90% growth inhibition rate); weed control effect, Rorippa indica (level) ([2]; 60 g/ha): 10; weed control effect, Setaria viridis (level) ([2]; 60 g/ha): 5 (Level 5: above 50% growth inhibition rate)
C#CCOCc1c(S(C)(=O)=O)ccc(C(=O)c2c(C)nn(C)c2OC(=O)c2cnn(C)c2)c1Cl [Compound 69]										0	3 (Level 3: above 20% growth inhibition rate)	0	7 (Level 7: above 70% growth inhibition rate)	7 (Level 7: above 70% growth inhibition rate)	6 (Level 6: above 60% growth inhibition rate)	10	10	6 (Level 6: above 60% growth inhibition rate)	
CCc1nn(CC)c(OC(=O)c2cn(C)nc2C)c1C(=O)c1ccc(S(C)(=O)=O)c(Cn2nc(C)cc2C)c1Cl [Compound 95]	0	0	0	6 (Level 6: above 60% growth inhibition rate)	6 (Level 6: above 60% growth inhibition rate)	1 (Level 1: above 1-10% growth inhibition rate)	10	4 (Level 4: above 30% growth inhibition rate)	3 (Level 3: above 20% growth inhibition rate)										
C#CCOCc1c(S(C)(=O)=O)ccc(C(=O)c2c(C)nn(C)c2OC(=O)c2cn(C)nc2C)c1Cl [Compound 33]										1 (Level 1: above 1-10% growth inhibition rate)	5 (Level 5: above 50% growth inhibition rate)	0	7 (Level 7: above 70% growth inhibition rate)	7 (Level 7: above 70% growth inhibition rate)	9 (Level 9: above 90% growth inhibition rate)	9 (Level 9: above 90% growth inhibition rate)	5 (Level 5: above 50% growth inhibition rate)	9 (Level 9: above 90% growth inhibition rate)	
COCc1c(S(C)(=O)=O)ccc(C(=O)c2c(C3CC3)nn(C)c2OC(=O)c2cnn(C)c2)c1Cl [Compound 72]										2 (Level 2: above 10% growth inhibition rate)	3 (Level 3: above 20% growth inhibition rate)	0	7 (Level 7: above 70% growth inhibition rate)	7 (Level 7: above 70% growth inhibition rate)	8 (Level 8: above 80% growth inhibition rate)	10	10	8 (Level 8: above 80% growth inhibition rate)	
CCc1nn(C)c(OC(=O)c2cn(C)nc2C)c1C(=O)c1ccc(S(C)(=O)=O)c(COCC(F)(F)F)c1Cl [Compound 32]										1 (Level 1: above 1-10% growth inhibition rate)	5 (Level 5: above 50% growth inhibition rate)	0	7 (Level 7: above 70% growth inhibition rate)	7 (Level 7: above 70% growth inhibition rate)	10	10	5 (Level 5: above 50% growth inhibition rate)	10	
CCOc1c(C(=O)Oc2c(C(=O)c3ccc(S(C)(=O)=O)c(Cn4cc(Cl)cn4)c3C)c(C)nn2CC)cnn1C [Compound 82]	0	0	0	6 (Level 6: above 60% growth inhibition rate)	6 (Level 6: above 60% growth inhibition rate)	1 (Level 1: above 1-10% growth inhibition rate)	10	4 (Level 4: above 30% growth inhibition rate)	3 (Level 3: above 20% growth inhibition rate)										
COCCOCc1c(S(C)(=O)=O)ccc(C(=O)c2c(C)nn(C)c2OC(=O)c2cn(C)nc2C)c1Cl [Compound 28]										0	6 (Level 6: above 60% growth inhibition rate)	0	7 (Level 7: above 70% growth inhibition rate)	7 (Level 7: above 70% growth inhibition rate)	7 (Level 7: above 70% growth inhibition rate)	9 (Level 9: above 90% growth inhibition rate)	5 (Level 5: above 50% growth inhibition rate)	5 (Level 5: above 50% growth inhibition rate)	
